The values that follow come from patent publication US8633219B2, “Combination therapy” (Japan Tobacco Inc., priority 2004, dated 2014).

Molecules are shown by their SMILES.

For one series, the system named is HIV-1IIIB. The series is described as follows: Drug combination anti-HIV-1 cytoprotection assay (MacSynergy II) in CEM-SS cells infected with HIV-1IIIB. It is filed as cell-based. The note with it: in combination with Compound A; for Antagonism Volume, Result 1 / Synergy Volume, Result 1 / Antagonism Volume, Result 2 / Synergy Volume, Result 2 / Antagonism Volume, Result 3 / Synergy Volume, Result 3: 95% confidence interval; for Antagonism Volume, Result 1 / Synergy Volume, Result 1: assay 1; for Antagonism Volume, Result 2 / Synergy Volume, Result 2: assay 2; for Antagonism Volume, Result 3 / Synergy Volume, Result 3: assay 3; for Mean Antagonism Volume / Mean Synergy Volume: n = 3. As to the method: This work was performed using the Prichard and Shipman MacSynergy II three-dimensional model for statistical evaluation of combination anti-HIV assays. Using a standard microtiter plate format, each combination assay was performed in CEM-SS T-lymphocytic cells acutely infected with the a laboratory-adapted strain, HIV-1IIIB, and viral growth/inhibition was evaluated by measuring by monitoring virus-induced cytopathic effects (CPE) at the experimental endpoint.
AZT was dissolved in sterile dH2O and the remainder of the control compounds were dissolved in DMSO for analysis in the combination assays. […] CEM-SS cells were passaged in T-75 flasks prior to use in the antiviral assay. On the day preceding the assay, the cells were split 1:2 to assure they were in an exponential growth phase at the time of infection. Total cell and viability quantification was performed using a hemacytometer and trypan blue exclusion.
The virus used for these tests was the lymphocytropic virus strain HIV-1IIIB. This virus was obtained from the NIH AIDS Research and Reference Reagent Program and was grown in CEM-SS cells for the production of stock virus pools. For each assay, a pre-titered aliquot of virus was removed from the freezer (−80° C.) and allowed to thaw slowly to room temperature in a biological safety cabinet. The virus was resuspended and diluted into tissue culture medium such that the amount of virus added to each well in a volume of 50 μl was the amount determined to give between 85 to 95% cell killing at 6 days post-infection.
The format of the test plate was standardized as follows. Each plate contains cell control wells (cells only), virus control wells (cells plus virus), drug cytotoxicity wells (cells plus drug only), drug colorimetric control wells (drug only), as well as experimental wells (drug plus cells plus virus). The final volume in each well was 200 μl.
At assay termination, the assay plates were stained with the soluble tetrazolium-based dye MTS (CellTiter96 Reagent, Promega) to determine cell viability and quantify compound toxicity. […] At termination of the assay, 20 μl of MTS reagent was added per well. The microtiter plates were then incubated 4-6 hrs at 37° C. for the HIV cytoprotection assay; the incubation intervals were chosen based on empirically determined times for optimal dye reduction. Adhesive plate sealers were used in place of the lids, the sealed plate was inverted several times to mix the soluble formazan product and the plate was read spectrophotometrically at 490/650 nm with a Molecular Devices Vmax plate reader.
Combination antiviral assays were performed with CEM-SS cells utilizing the HIV-1IIIB strain of virus as described above.
The expected additive antiviral protection was subtracted from the experimentally determined antiviral activity at each combination concentration resulting in a positive value (synergy), a negative value (antagonism), or zero (additivity). The results of the combination assays are presented three dimensionally at each combination concentration, yielding a surface of activity extending above (synergy) or below (antagonism) the plane of additivity. The volume of the surface is calculated and expressed as a synergy volume (μM^2%) calculated at the 95% confidence interval.
Slightly synergistic activity and highly synergistic activity have been defined as yielding synergy volumes of 50-100 μM^2% and >100 μM^2%, respectively.

The next series deals with CEM-SS cells. The series is described as follows: Cellular cytotoxicity by MTS staining in the combination assay. It is filed as cell-based. The following applies: combinations with other anti-HIV agents; Compound A 4 nM high-test concentration. The procedure:
The format of the test plate was standardized as follows. Each plate contains cell control wells (cells only), virus control wells (cells plus virus), drug cytotoxicity wells (cells plus drug only), drug colorimetric control wells (drug only), as well as experimental wells (drug plus cells plus virus). The final volume in each well was 200 μl. Samples were evaluated with triplicate measurements using a checkerboard dilution scheme; […]; antiviral efficacy and cellular cytotoxicity were monitored by MTS staining at the experimental endpoint.
At assay termination, the assay plates were stained with the soluble tetrazolium-based dye MTS (CellTiter96 Reagent, Promega) to determine cell viability and quantify compound toxicity. MTS is metabolized by the mitochondrial enzymes of metabolically active cells to yield a soluble formazan product, allowing the rapid quantitative analysis of cell viability and compound cytotoxicity. […] The microtiter plates were then incubated 4-6 hrs at 37° C. for the HIV cytoprotection assay; the incubation intervals were chosen based on empirically determined times for optimal dye reduction. Adhesive plate sealers were used in place of the lids, the sealed plate was inverted several times to mix the soluble formazan product and the plate was read spectrophotometrically at 490/650 nm with a Molecular Devices Vmax plate reader.

`Cc1cn([C@H]2C[C@H](N=[N+]=[N-])[C@@H](CO)O2)c(=O)[nH]c1=O` [AZT, zidovudine]: in the series with HIV-1IIIB, the “Antagonism Volume, Result 1” value is given as −21 μM^2%; the “Synergy Volume, Result 1” value worked out at 46 μM^2%; the “Antagonism Volume, Result 2” value is −44 μM^2%; the “Synergy Volume, Result 2” value is listed as 19 μM^2%. Further, in the series with HIV-1IIIB, the “Antagonism Volume, Result 3” value is reported as −23 μM^2%; the “Synergy Volume, Result 3” value is given as 57 μM^2%; the “Mean Antagonism Volume” value is given as −29.3 μM^2%; the “Mean Synergy Volume” value is given as 40.7 μM^2%.

Regarding `COc1cc2c(cc1Cc1cccc(Cl)c1F)c(=O)c(C(=O)O)cn2[C@H](CO)C(C)C` [Compound A, (S)-6-(3-Chloro-2-fluorobenzyl)-1-(1-hydroxymethyl-2-methylpropyl)-7-methoxy-4-oxo-1,4-dihydroquinoline-3-carboxylic acid], the synergistic cytotoxicity result in the series with CEM-SS cells is given as “no evidence of synergistic cytotoxicity”.

Consider `O=C1Nc2ccc(Cl)cc2[C@@](C#CC2CC2)(C(F)(F)F)O1` [EFV, efavirenz], for which, in the series on HIV-1IIIB, the “Antagonism Volume, Result 1” value is −9 μM^2%; the “Synergy Volume, Result 1” value turned out to be 26 μM^2%; the “Antagonism Volume, Result 2” value amounted to 0 μM^2%; the “Synergy Volume, Result 2” value came out at 54 μM^2%. In addition, in the series on HIV-1IIIB, the “Antagonism Volume, Result 3” value is listed as −7 μM^2%; the “Synergy Volume, Result 3” value is 26 μM^2%; the “Mean Antagonism Volume” value is −5.3 μM^2%; the “Mean Synergy Volume” value is 35.3 μM^2%.

Consider `CC(C)(C)NC(=O)[C@@H]1CN(Cc2cccnc2)CCN1C[C@@H](O)C[C@@H](Cc1ccccc1)C(=O)N[C@H]1c2ccccc2C[C@H]1O` [IDV, indinavir], for which, in the series with HIV-1IIIB, the “Antagonism Volume, Result 1” value is −7 μM^2%; the “Synergy Volume, Result 1” value is on record as 57 μM^2%; the “Antagonism Volume, Result 2” value is recorded as −23 μM^2%; the “Synergy Volume, Result 2” value is recorded as 13 μM^2%. For the same compound, in the series on HIV-1IIIB, the “Antagonism Volume, Result 3” value is listed as −26 μM^2%; the “Synergy Volume, Result 3” value was 10 μM^2%; the “Mean Antagonism Volume” value is on record as −18.7 μM^2%; the “Mean Synergy Volume” value came out at 26.7 μM^2%.

Consider `Cc1c(O)cccc1C(=O)N[C@@H](CSc1ccccc1)[C@H](O)CN1C[C@H]2CCCC[C@H]2C[C@H]1C(=O)NC(C)(C)C` [NFV, nelfinavir], for which, in the series on HIV-1IIIB, the “Antagonism Volume, Result 1” value is on record as −3 μM^2%; the “Synergy Volume, Result 1” value is listed as 44 μM^2%; the “Antagonism Volume, Result 2” value is reported as −3 μM^2%; the “Synergy Volume, Result 2” value worked out at 38 μM^2%. In the series on HIV-1IIIB, the “Antagonism Volume, Result 3” value is recorded as −46 μM^2%; the “Synergy Volume, Result 3” value was 20 μM^2%; the “Mean Antagonism Volume” value was −17.3 μM^2%; the “Mean Synergy Volume” value turned out to be 34. μM^2%.

As to `C[C@H](Cn1cnc2c(N)ncnc21)OCP(=O)(O)O` [PMPA, tenofovir], in the series on HIV-1IIIB, the “Antagonism Volume, Result 1” value is given as −23 μM^2%; the “Synergy Volume, Result 1” value is 29 μM^2%; the “Antagonism Volume, Result 2” value was −4 μM^2%; the “Synergy Volume, Result 2” value was found to be 43 μM^2%. Also, in the series with HIV-1IIIB, the “Antagonism Volume, Result 3” value was −60 μM^2%; the “Synergy Volume, Result 3” value was 13 μM^2%; the “Mean Antagonism Volume” value is recorded as −29.0 μM^2%; the “Mean Synergy Volume” value came out at 28.3 μM^2%.
